PMC5622171 (Nature Communications, 2017)

How the values were obtained:
Experiment in all cases: KINOMEscan kinase profiling
Type in all cases: binding
MAST1 = molecular target: T1, MAST1 (Homo sapiens, UniProt Q9Y2H9); conditions: read-out: %Inhibition by 10 μM SPA70
T1 construct: purchased DiscoverX (Ambit Biosciences) KINOMEscan
Procedure, shortened: (§1)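 KINOMEscan profiling followed a published protocol. Kinases whose inhibition exceeded a set cut-off were then tested in a dilution series beginning at 30 µM.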

PAK7 = molecular target: T2, PAK7 (Homo sapiens, UniProt Q9P286); conditions: read-out: %Inhibition by 10 μM SPA70
T2 construct: purchased DiscoverX (Ambit Biosciences) KINOMEscan
Procedure, shortened: as §1

ZAK = molecular target: T3, ZAK (Homo sapiens, UniProt Q9NYL2); conditions: read-out: %Inhibition by 10 μM SPA70
T3 construct: purchased DiscoverX (Ambit Biosciences) KINOMEscan
Procedure, shortened: as §1

[1] = molecular target: T4, JAK2(JH1domain-catalytic) (Homo sapiens, UniProt O60674)
T4 construct: JAK2(JH1domain-catalytic); purchased DiscoverX (Ambit Biosciences) KINOMEscan
T4 sequence (O60674 849-1132 limits assumed): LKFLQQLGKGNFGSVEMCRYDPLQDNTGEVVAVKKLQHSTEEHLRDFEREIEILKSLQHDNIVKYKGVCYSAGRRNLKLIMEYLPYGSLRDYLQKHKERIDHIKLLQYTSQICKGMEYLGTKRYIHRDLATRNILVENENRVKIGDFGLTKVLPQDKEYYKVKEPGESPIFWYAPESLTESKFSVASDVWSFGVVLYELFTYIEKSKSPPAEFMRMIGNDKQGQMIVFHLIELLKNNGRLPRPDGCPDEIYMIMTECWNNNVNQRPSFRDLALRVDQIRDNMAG
Procedure, shortened: as §1

MYO3A = molecular target: T5, MYO3A (Homo sapiens, UniProt Q8NEV4); conditions: read-out: %Inhibition by 10 μM SPA70
T5 construct: purchased DiscoverX (Ambit Biosciences) KINOMEscan
Procedure, shortened: as §1

CLK2 = molecular target: T6, CLK2 (Homo sapiens, UniProt P49760); conditions: read-out: %Inhibition by 10 μM SPA70
T6 construct: purchased DiscoverX (Ambit Biosciences) KINOMEscan
T6 sequence (P49760 whole entry): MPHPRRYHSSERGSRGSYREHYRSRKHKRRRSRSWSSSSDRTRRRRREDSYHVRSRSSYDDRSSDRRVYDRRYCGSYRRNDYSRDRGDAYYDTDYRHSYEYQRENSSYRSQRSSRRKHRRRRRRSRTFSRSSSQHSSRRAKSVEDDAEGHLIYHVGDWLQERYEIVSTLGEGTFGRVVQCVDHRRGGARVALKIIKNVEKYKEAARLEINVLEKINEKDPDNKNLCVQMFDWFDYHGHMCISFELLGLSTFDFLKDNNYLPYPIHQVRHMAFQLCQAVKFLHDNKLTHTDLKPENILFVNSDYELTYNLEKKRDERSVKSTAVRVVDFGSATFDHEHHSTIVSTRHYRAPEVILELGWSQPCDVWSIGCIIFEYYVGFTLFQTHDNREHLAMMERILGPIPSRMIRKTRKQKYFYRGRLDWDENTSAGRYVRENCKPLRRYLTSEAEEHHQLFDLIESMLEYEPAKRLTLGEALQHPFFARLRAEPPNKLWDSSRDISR
Procedure, shortened: as §1

ITK = molecular target: T7, ITK (Homo sapiens, UniProt Q08881)
T7 construct: purchased DiscoverX (Ambit Biosciences) KINOMEscan
T7 sequence (Q08881 whole entry): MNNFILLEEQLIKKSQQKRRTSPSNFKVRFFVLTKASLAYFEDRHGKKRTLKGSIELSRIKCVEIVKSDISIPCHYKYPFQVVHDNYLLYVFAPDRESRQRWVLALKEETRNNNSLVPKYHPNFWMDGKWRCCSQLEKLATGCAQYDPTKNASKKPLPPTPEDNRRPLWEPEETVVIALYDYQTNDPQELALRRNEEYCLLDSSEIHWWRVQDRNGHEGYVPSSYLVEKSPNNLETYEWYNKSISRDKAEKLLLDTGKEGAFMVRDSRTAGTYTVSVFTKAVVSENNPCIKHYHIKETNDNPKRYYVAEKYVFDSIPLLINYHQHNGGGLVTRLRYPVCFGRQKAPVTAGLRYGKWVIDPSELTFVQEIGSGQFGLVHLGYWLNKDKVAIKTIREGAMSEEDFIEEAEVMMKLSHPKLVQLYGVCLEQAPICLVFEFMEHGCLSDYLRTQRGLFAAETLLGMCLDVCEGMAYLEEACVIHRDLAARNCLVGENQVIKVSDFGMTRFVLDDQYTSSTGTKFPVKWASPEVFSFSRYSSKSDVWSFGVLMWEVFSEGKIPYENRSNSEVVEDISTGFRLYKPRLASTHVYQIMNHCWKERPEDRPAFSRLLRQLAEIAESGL
Procedure, shortened: as §1

DDR1 = molecular target: T8, DDR1 (Homo sapiens, UniProt Q08345); conditions: read-out: %Inhibition by 10 μM SPA70
T8 construct: purchased DiscoverX (Ambit Biosciences) KINOMEscan
Procedure, shortened: as §1

STK36 = molecular target: T9, STK36 (Homo sapiens, UniProt Q9NRP7); conditions: read-out: %Inhibition by 10 μM SPA70
T9 construct: purchased DiscoverX (Ambit Biosciences) KINOMEscan
T9 sequence (Q9NRP7 whole entry): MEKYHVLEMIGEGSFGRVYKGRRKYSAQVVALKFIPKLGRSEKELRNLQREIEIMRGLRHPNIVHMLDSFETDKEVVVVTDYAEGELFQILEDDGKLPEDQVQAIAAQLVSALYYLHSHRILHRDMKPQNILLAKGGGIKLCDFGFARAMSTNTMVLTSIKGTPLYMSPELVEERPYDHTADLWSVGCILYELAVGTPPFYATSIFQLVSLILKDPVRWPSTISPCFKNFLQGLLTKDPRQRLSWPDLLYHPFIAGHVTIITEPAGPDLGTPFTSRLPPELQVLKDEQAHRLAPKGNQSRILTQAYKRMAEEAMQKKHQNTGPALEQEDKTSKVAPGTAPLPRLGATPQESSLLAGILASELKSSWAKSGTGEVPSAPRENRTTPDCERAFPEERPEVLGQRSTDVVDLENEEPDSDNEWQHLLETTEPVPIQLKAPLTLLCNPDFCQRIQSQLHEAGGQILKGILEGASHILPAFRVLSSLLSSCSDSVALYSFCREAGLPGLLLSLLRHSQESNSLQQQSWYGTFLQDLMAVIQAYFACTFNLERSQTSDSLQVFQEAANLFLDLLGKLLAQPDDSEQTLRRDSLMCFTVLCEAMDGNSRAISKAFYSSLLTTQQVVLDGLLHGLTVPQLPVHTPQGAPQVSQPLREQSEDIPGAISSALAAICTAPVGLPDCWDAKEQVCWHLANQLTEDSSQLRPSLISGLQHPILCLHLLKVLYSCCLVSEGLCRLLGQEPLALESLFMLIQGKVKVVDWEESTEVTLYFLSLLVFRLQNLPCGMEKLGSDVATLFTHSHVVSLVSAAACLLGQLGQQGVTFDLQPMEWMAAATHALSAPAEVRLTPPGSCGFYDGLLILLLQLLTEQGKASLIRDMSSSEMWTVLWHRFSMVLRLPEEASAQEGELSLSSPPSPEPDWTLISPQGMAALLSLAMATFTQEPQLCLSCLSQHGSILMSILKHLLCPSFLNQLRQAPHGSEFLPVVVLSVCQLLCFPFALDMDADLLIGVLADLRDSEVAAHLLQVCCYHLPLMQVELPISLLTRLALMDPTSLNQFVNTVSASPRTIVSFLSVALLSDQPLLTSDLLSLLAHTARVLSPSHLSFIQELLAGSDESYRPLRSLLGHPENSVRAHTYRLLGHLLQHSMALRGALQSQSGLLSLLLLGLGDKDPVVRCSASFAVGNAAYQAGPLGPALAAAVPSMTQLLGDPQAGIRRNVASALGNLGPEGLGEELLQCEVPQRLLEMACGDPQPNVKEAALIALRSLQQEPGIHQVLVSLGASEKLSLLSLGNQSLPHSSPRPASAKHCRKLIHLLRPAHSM
Procedure, shortened: as §1

NEK4 = molecular target: T10, NEK4 (Homo sapiens, UniProt P51957); conditions: read-out: %Inhibition by 10 μM SPA70
T10 construct: purchased DiscoverX (Ambit Biosciences) KINOMEscan
Procedure, shortened: as §1

TLK1 = molecular target: T11, TLK1 (Homo sapiens, UniProt Q9UKI8); conditions: read-out: %Inhibition by 10 μM SPA70
T11 construct: purchased DiscoverX (Ambit Biosciences) KINOMEscan
Procedure, shortened: as §1

TAOK1 = molecular target: T12, TAOK1 (Homo sapiens, UniProt Q7L7X3); conditions: read-out: %Inhibition by 10 μM SPA70
T12 construct: purchased DiscoverX (Ambit Biosciences) KINOMEscan
Procedure, shortened: as §1

ERK4 = molecular target: T13, ERK4 (Homo sapiens, UniProt P31152); conditions: read-out: %Inhibition by 10 μM SPA70
T13 construct: purchased DiscoverX (Ambit Biosciences) KINOMEscan
Procedure, shortened: as §1

MAK = molecular target: T14, MAK (Homo sapiens, UniProt P20794); conditions: read-out: %Inhibition by 10 μM SPA70
T14 construct: purchased DiscoverX (Ambit Biosciences) KINOMEscan
Procedure, shortened: as §1

CLK1 = molecular target: T15, CLK1 (Homo sapiens, UniProt P49759); conditions: read-out: %Inhibition by 10 μM SPA70
T15 construct: purchased DiscoverX (Ambit Biosciences) KINOMEscan
T15 sequence (P49759 whole entry): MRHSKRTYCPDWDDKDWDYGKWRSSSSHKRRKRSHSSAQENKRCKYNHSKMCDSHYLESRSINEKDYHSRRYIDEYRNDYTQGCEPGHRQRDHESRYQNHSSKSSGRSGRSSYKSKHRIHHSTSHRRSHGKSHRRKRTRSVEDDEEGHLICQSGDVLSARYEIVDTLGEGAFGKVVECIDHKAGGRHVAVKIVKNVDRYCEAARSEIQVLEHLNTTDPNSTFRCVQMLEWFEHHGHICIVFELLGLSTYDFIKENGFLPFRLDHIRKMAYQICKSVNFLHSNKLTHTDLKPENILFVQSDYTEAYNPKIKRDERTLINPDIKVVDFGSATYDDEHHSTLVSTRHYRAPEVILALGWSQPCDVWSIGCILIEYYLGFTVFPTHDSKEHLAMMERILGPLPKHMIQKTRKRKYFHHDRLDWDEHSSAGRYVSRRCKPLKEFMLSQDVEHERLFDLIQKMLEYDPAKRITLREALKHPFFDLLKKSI
Procedure, shortened: as §1

BIKE = molecular target: T16, BIKE (Homo sapiens, UniProt Q9NSY1); conditions: read-out: %Inhibition by 10 μM SPA70
T16 construct: purchased DiscoverX (Ambit Biosciences) KINOMEscan
Procedure, shortened: as §1

CAMK2G = molecular target: T17, CAMK2G (Homo sapiens, UniProt Q13555); conditions: read-out: %Inhibition by 10 μM SPA70
T17 construct: purchased DiscoverX (Ambit Biosciences) KINOMEscan
T17 sequence (Q13555 whole entry): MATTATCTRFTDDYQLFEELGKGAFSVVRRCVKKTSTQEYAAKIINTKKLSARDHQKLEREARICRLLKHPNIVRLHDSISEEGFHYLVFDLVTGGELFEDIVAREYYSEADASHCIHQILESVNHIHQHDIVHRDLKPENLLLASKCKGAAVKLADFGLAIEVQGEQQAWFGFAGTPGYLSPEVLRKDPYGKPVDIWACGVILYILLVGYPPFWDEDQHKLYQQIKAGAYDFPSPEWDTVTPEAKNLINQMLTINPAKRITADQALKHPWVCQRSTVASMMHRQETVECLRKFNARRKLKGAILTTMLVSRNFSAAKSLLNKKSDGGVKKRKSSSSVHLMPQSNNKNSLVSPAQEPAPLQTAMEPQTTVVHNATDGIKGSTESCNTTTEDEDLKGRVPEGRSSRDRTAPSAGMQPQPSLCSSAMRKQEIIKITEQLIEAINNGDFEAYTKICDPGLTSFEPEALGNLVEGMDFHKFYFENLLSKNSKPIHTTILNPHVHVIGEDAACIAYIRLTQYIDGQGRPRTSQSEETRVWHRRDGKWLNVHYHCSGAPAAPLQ
Procedure, shortened: as §1

SRPK1 = molecular target: T18, SRPK1 (Homo sapiens, UniProt Q96SB4); conditions: read-out: %Inhibition by 10 μM SPA70
T18 construct: purchased DiscoverX (Ambit Biosciences) KINOMEscan
Procedure, shortened: as §1

FLT3 = molecular target: T19, FLT3 (Homo sapiens, UniProt P36888); conditions: read-out: %Inhibition by 10 μM SPA70
T19 construct: purchased DiscoverX (Ambit Biosciences) KINOMEscan
Procedure, shortened: as §1

AMPK-alpha2 = molecular target: T20, AMPK-alpha2 (Homo sapiens, UniProt P54646); conditions: read-out: %Inhibition by 10 μM SPA70
T20 construct: purchased DiscoverX (Ambit Biosciences) KINOMEscan
Procedure, shortened: as §1

NEK1 = molecular target: T21, NEK1 (Homo sapiens, UniProt Q96PY6); conditions: read-out: %Inhibition by 10 μM SPA70
T21 construct: purchased DiscoverX (Ambit Biosciences) KINOMEscan
T21 sequence (Q96PY6 whole entry): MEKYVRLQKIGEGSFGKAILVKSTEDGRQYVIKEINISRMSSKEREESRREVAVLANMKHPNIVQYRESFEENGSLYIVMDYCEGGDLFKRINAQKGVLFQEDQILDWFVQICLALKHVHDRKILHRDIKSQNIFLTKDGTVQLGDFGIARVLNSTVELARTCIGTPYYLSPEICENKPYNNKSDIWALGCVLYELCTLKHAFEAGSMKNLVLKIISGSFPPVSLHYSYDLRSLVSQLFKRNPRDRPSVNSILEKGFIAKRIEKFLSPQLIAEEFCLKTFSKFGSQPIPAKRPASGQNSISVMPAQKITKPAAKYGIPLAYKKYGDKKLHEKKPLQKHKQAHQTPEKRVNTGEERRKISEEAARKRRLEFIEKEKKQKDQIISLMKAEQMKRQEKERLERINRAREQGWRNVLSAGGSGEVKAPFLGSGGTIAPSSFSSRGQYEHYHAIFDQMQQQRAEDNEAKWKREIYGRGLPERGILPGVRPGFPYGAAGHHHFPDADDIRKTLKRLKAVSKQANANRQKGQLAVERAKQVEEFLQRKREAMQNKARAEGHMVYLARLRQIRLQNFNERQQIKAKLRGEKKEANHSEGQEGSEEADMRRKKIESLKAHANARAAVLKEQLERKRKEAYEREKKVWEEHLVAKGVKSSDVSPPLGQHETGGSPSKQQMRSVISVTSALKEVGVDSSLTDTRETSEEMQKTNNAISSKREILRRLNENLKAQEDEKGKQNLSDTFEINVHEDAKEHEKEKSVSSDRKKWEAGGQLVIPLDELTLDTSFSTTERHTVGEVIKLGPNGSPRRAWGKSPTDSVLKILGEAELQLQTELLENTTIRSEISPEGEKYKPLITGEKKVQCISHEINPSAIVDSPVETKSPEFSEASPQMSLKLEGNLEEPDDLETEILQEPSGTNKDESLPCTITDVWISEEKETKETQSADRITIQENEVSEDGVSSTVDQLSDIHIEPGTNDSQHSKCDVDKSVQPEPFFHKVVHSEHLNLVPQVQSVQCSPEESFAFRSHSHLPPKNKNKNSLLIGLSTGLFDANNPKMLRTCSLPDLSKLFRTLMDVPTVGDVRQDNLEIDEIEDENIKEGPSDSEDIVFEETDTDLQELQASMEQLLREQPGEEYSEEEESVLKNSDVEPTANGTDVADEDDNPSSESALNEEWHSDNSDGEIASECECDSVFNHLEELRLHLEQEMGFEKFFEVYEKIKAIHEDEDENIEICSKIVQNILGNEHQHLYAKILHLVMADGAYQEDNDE
Procedure, shortened: as §1

CLK4 = molecular target: T22, CLK4 (Homo sapiens, UniProt Q9HAZ1); conditions: read-out: %Inhibition by 10 μM SPA70
T22 construct: purchased DiscoverX (Ambit Biosciences) KINOMEscan
Procedure, shortened: as §1

STK16 = molecular target: T23, STK16 (Homo sapiens, UniProt O75716); conditions: read-out: %Inhibition by 10 μM SPA70
T23 construct: purchased DiscoverX (Ambit Biosciences) KINOMEscan
Procedure, shortened: as §1

DCAMKL2 = molecular target: T24, DCAMKL2 (Homo sapiens, UniProt Q8N568); conditions: read-out: %Inhibition by 10 μM SPA70
T24 construct: purchased DiscoverX (Ambit Biosciences) KINOMEscan
Procedure, shortened: as §1

ABL1-nonphosphorylated = molecular target: T25, ABL1-nonphosphorylated (Homo sapiens, UniProt P00519); conditions: read-out: %Inhibition by 10 μM SPA70
T25 construct: purchased DiscoverX (Ambit Biosciences) KINOMEscan
Procedure, shortened: as §1

CDK9 = molecular target: T26, CDK9 (Homo sapiens, UniProt P50750); conditions: read-out: %Inhibition by 10 μM SPA70
T26 construct: purchased DiscoverX (Ambit Biosciences) KINOMEscan
Procedure, shortened: as §1

CAMK2D = molecular target: T27, CAMK2D (Homo sapiens, UniProt Q13557); conditions: read-out: %Inhibition by 10 μM SPA70
T27 construct: purchased DiscoverX (Ambit Biosciences) KINOMEscan
Procedure, shortened: as §1

ULK2 = molecular target: T28, ULK2 (Homo sapiens, UniProt Q8IYT8); conditions: read-out: %Inhibition by 10 μM SPA70
T28 construct: purchased DiscoverX (Ambit Biosciences) KINOMEscan
Procedure, shortened: as §1

ADCK3 = molecular target: T29, ADCK3 (Homo sapiens, UniProt Q8NI60); conditions: read-out: %Inhibition by 10 μM SPA70
T29 construct: purchased DiscoverX (Ambit Biosciences) KINOMEscan
Procedure, shortened: as §1

HUNK = molecular target: T30, HUNK (Homo sapiens, UniProt P57058); conditions: read-out: %Inhibition by 10 μM SPA70
T30 construct: purchased DiscoverX (Ambit Biosciences) KINOMEscan
Procedure, shortened: as §1

MAPKAPK2 = molecular target: T31, MAPKAPK2 (Homo sapiens, UniProt P49137); conditions: read-out: %Inhibition by 10 μM SPA70
T31 construct: purchased DiscoverX (Ambit Biosciences) KINOMEscan
Procedure, shortened: as §1

EPHA6 = molecular target: T32, EPHA6 (Homo sapiens, UniProt Q9UF33); conditions: read-out: %Inhibition by 10 μM SPA70
T32 construct: purchased DiscoverX (Ambit Biosciences) KINOMEscan
Procedure, shortened: as §1

[2] = molecular target: T33, RSK4(Kin.Dom.1-N-terminal) (Homo sapiens, UniProt Q9UK32)
T33 construct: RSK4(Kin.Dom.1-N-terminal); purchased DiscoverX (Ambit Biosciences) KINOMEscan
Procedure, shortened: as §1

EPHA4 = molecular target: T34, EPHA4 (Homo sapiens, UniProt P54764); conditions: read-out: %Inhibition by 10 μM SPA70
T34 construct: purchased DiscoverX (Ambit Biosciences) KINOMEscan
Procedure, shortened: as §1

SRMS = molecular target: T35, SRMS (Homo sapiens, UniProt Q9H3Y6); conditions: read-out: %Inhibition by 10 μM SPA70
T35 construct: purchased DiscoverX (Ambit Biosciences) KINOMEscan
Procedure, shortened: as §1

STK33 = molecular target: T36, STK33 (Homo sapiens, UniProt Q9BYT3); conditions: read-out: %Inhibition by 10 μM SPA70
T36 construct: purchased DiscoverX (Ambit Biosciences) KINOMEscan
Procedure, shortened: as §1

PLK3 = molecular target: T37, PLK3 (Homo sapiens, UniProt Q9H4B4); conditions: read-out: %Inhibition by 10 μM SPA70
T37 construct: purchased DiscoverX (Ambit Biosciences) KINOMEscan
Procedure, shortened: as §1

LATS1 = molecular target: T38, LATS1 (Homo sapiens, UniProt O95835); conditions: read-out: %Inhibition by 10 μM SPA70
T38 construct: purchased DiscoverX (Ambit Biosciences) KINOMEscan
Procedure, shortened: as §1

PIK3CA = molecular target: T39, PIK3CA (Homo sapiens, UniProt P42336); conditions: read-out: %Inhibition by 10 μM SPA70
T39 construct: purchased DiscoverX (Ambit Biosciences) KINOMEscan
Procedure, shortened: as §1

[3] = molecular target: T40, RSK1(Kin.Dom.2-C-terminal) (Homo sapiens, UniProt Q15418); conditions: read-out: %Inhibition by 10 μM SPA70
T40 construct: RSK1(Kin.Dom.2-C-terminal); purchased DiscoverX (Ambit Biosciences) KINOMEscan
Procedure, shortened: as §1

DDR2 = molecular target: T41, DDR2 (Homo sapiens, UniProt Q16832); conditions: read-out: %Inhibition by 10 μM SPA70
T41 construct: purchased DiscoverX (Ambit Biosciences) KINOMEscan
Procedure, shortened: as §1

COc1ccc(OC)c(-n2nnc(S(=O)(=O)c3ccc(C(C)(C)C)cc3)c2C)c1 [SPA70]
inhibition at 10 µM (MAST1): 0% | inhibition at 10 µM (PAK7): 26% | inhibition at 10 µM (ZAK): 0% | %Inhibition by 10 μM SPA70 [1]: 33% | inhibition at 10 µM (MYO3A): 0% | inhibition at 10 µM (CLK2): 24% | %Inhibition by 10 μM SPA70 (ITK): 0% | inhibition at 10 µM (DDR1): 0% | inhibition at 10 µM (STK36): 0% | inhibition at 10 µM (NEK4): 21% | inhibition at 10 µM (TLK1): 23% | inhibition at 10 µM (TAOK1): 15% | inhibition at 10 µM (ERK4): 0% | inhibition at 10 µM (MAK): 13% | inhibition at 10 µM (CLK1): 0% | inhibition at 10 µM (BIKE): 35% | inhibition at 10 µM (CAMK2G): 1% | inhibition at 10 µM (SRPK1): 0% | inhibition at 10 µM (FLT3): 0% | inhibition at 10 µM (AMPK-alpha2): 9% | inhibition at 10 µM (NEK1): 0% | inhibition at 10 µM (CLK4): 4% | inhibition at 10 µM (STK16): 0% | inhibition at 10 µM (DCAMKL2): 0% | inhibition at 10 µM (ABL1-nonphosphorylated): 0% | inhibition at 10 µM (CDK9): 0% | inhibition at 10 µM (CAMK2D): 0% | inhibition at 10 µM (ULK2): 0% | inhibition at 10 µM (ADCK3): 0% | inhibition at 10 µM (HUNK): 15% | inhibition at 10 µM (MAPKAPK2): 20% | inhibition at 10 µM (EPHA6): 0% | %Inhibition by 10 μM SPA70 [2]: 4% | inhibition at 10 µM (EPHA4): 0% | inhibition at 10 µM (SRMS): 0% | inhibition at 10 µM (STK33): 0% | inhibition at 10 µM (PLK3): 33% | inhibition at 10 µM (LATS1): 0% | inhibition at 10 µM (PIK3CA): 0% | inhibition at 10 µM [3]: 12% | inhibition at 10 µM (DDR2): 0%
